Activity calls are given as the source filed them.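 How the source made its calls: active means maximal inhibition of the USP30 enzyme reaching 30% or more across the dose series; inactive means the rest.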

For this experiment, the target named is Ubiquitin carboxyl-terminal hydrolase 30 (Homo sapiens) (UniProt Q70CQ3). Kind of experiment: inhibitors of ubiquitin-specific protease 30 deubiquitylating enzyme, concentration dependence, in vitro biochemical, validation of primary hits (AID 1645865). Particulars: purified USP30, Ub-rhodamine cleavage, fluorescence, 2 h.
Ubiquitin carboxyl-terminal hydrolase 30 (Homo sapiens), sequence (Q70CQ3 whole entry, looked up): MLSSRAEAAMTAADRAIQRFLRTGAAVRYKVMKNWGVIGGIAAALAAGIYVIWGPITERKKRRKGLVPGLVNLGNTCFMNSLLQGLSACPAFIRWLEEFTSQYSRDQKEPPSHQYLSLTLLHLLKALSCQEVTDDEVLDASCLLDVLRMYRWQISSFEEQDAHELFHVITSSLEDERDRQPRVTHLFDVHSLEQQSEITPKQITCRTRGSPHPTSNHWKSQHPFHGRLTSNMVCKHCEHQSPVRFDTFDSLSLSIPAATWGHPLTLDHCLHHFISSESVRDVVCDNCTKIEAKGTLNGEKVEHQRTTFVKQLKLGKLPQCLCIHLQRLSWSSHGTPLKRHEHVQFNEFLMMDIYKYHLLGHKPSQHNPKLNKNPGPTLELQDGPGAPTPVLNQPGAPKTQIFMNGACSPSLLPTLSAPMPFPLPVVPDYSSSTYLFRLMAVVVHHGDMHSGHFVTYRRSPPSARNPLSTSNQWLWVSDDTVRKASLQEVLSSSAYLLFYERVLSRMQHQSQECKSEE
`O=C(Cc1nnc2c(-c3nc(C4CC4)no3)cccn12)Nc1ccccc1`: the IC50 was 26.8 µM. The same measure for `Cc1ccc(NC(=O)c2nnn(-c3ccccc3Br)c2C)cc1C`: > 50 µM (inactive); for `COc1cccc2c1C(=O)c1ccc3c(c1C2=O)C(=O)CC(C)(O)C3` (configuration not stated): > 50 µM (inactive); for `Cc1ccc2cccc(OCc3nnc(SCC(=O)c4ccc(Cl)cc4)n3C)c2n1`: 2.63 µM. As to `CC(C)Cc1nc2oc3c(N(C)CCO)ncnc3c2c2c1CCC2`, the IC50 was > 50 µM (inactive). On to `Cc1ccccc1NC(=O)c1ccn(COc2ccc(Cl)cc2)n1`, for which the IC50 is > 50 µM (inactive). The same measure for `O=C(Nc1ccc2c(c1)OCCO2)c1ccc(N2CCCC2=O)cc1`: 42.4 µM; for `Cc1ccc(NC(=O)C2CCN(c3cncnc3N3CCCC3)CC2)cc1`: > 50 µM (inactive). Consider `O=C1Nc2ccccc2C(=O)C1C(c1ccc(Cl)cc1)C1C(=O)Nc2ccccc2C1=O` (configuration not stated), for which the IC50 is > 50 µM (inactive). In the case of `COc1ccccc1-c1nc2c3c(C)c(C)n(Cc4cccnc4)c3ncn2n1`, the IC50 was > 50 µM (inactive).

In the case of `Cc1cc(O)c(Oc2cc(C)cc(O)c2O)c(O)c1`, the IC50 was 33.1 µM. As to `CNC(=O)c1cc2nc(N(C)C)n(-c3ccccc3)c2s1`, the IC50 was > 50 µM (inactive). In the case of `Cc1ccc(OCCn2c(=N)n(C(C)C)c3ccccc32)cc1`, the IC50 was 35.3 µM.

As for `Cc1ccc(-c2nc(N3CCCC(O)C3)ncc2-c2cnccn2)s1` (configuration not stated), the IC50 is > 50 µM (inactive). For the molecule `CCn1c(SCC(=O)N2c3ccccc3CC2C)nnc1-c1ccc2c(c1)OCCO2` (configuration not stated), the IC50 was 23.2 µM. Turning to `COc1ccc(-c2nc(-c3nnn(Cc4ccc(F)cc4)c3C)no2)c(OC)c1`, the IC50 was 8.97 µM.

As to `CCOc1ccccc1-c1nc(-c2nnn(Cc3ccccc3)c2C)no1`, the IC50 is > 50 µM (inactive).

Regarding `CC1CC(=O)c2c(cc3c(-c4c(O)cc(O)c5c(O)c6c(cc45)OC(C)CC6=O)c(O)cc(O)c3c2O)O1` (configuration not stated), the IC50 is > 50 µM (inactive). For `Cc1nc2cc(NC(=O)C3CN(C(=O)c4cnccn4)C3)ccc2s1`, the IC50 is > 50 µM (inactive). The same measure for `Cc1ccc(C(C)C)cc1OCCOCCN1CCNCC1`: > 50 µM (inactive); for `Cc1ccc2c(Nc3ccc(CC(=O)O)cc3)c(C(=O)N3CCCC3)cnc2n1`: > 50 µM (inactive); for `CSc1ccc(CNCc2c(C(=O)O)n(Cc3ccccc3)c3cc(C)ccc23)cc1`: > 50 µM (inactive). As to `CC(C)c1nc2sc3c(NCc4ccco4)ncnc3c2c2c1CCC2`, the IC50 was > 50 µM (inactive). Turning to `Cc1cccc(-n2cnc(C(=O)NCc3ccc(F)cc3)c2)n1`, the IC50 is 44.9 µM. On to `Cc1cc(C)nc(-n2nc(C)c3c2NC(=O)CSC3c2ccccc2F)n1` (configuration not stated), for which the IC50 was 29.5 µM. On to `CN(c1ccccc1)c1nc(=O)n(CC(=O)Nc2ccc3c(c2)OCCO3)c2ccccc12`, for which the IC50 is 35.9 µM. The result for `COc1ccc(-c2nc(SCC(=O)Nc3ccc(C(C)=O)cc3)n[nH]2)cc1` reads 11.1 µM. On to `O=C(/C=C/c1cnc2ccccc2c1)NCc1ccccc1`, for which the IC50 was 35.1 µM. Turning to `COc1cccc(-n2ccc(=O)c(-c3nc(-c4ccccc4Cl)no3)n2)c1`, the IC50 is > 50 µM (inactive). The result for `CCOc1ccc(NC(=O)Cn2cc(C(=O)c3ccc(Cl)cc3)c(=O)c3cc(OC)ccc32)cc1` reads 0.975 µM.

As to `CN1CC2CN(C(=O)c3ccc(F)cc3)CCN2Cc2ccccc21` (configuration not stated), the IC50 is > 50 µM (inactive). On to `Cc1ccc(Cn2nnc(-c3ccccc3Cl)n2)cc1`, for which the IC50 is > 50 µM (inactive). The same measure for `CC(=O)c1ccc(Cc2ncc(C(F)(F)F)cc2Cl)s1`: > 50 µM (inactive); for `COC(=O)c1ccc(NC(=O)CSc2nnc(-c3ccc(O)cc3)n2Cc2ccco2)cc1`: 4.38 µM. On to `O=C(Nc1ncc2c(n1)-c1ccccc1CC2)C1CC1`, for which the IC50 was 17.5 µM. With `COc1ccc(CNC(=O)C(C)n2nc(-c3ccco3)c(-c3cc(C)no3)cc2=O)cc1` (configuration not stated), the IC50 is > 50 µM (inactive). As to `Cn1c(CCN2CCCC2)nc2cc(NC(=O)c3ccccc3)ccc21`, the IC50 was > 50 µM (inactive).

`Cc1ccc(OCC(=O)Nc2cccc(-c3nc4ncccc4o3)c2)c(C)c1`: the IC50 was 34 µM.

Take `Cc1cc(N2CCN(c3ncccn3)CC2)nc2ccc(NC(=O)/C=C/c3ccccc3Cl)cc12`: the concentration for half-maximal inhibition (IC50) was 4.88 µM. For the molecule `CCCCc1ccc(-c2cc(C(=O)NCCN3CCOCC3)c3cc(Br)ccc3n2)cc1`, the 50% inhibitory concentration (IC50) is 2.31 µM. Turning to `O=C(c1ccco1)N1CCC2(CC1)CC1(CO2)Nc2ccccc2-n2cccc21` (configuration not stated), the IC50 was > 50 µM (inactive). As for `C/C1=C\CCC(C)C(O)CC(O)C(C)C(O)CCC(C)C(O)CC2(O)OC(CC(OC(=O)CC(=O)O)CC(O)CC(O)CC(O)C(C)C(O)/C=C/C(C)C(C(C)CCCCCCCCN=C(N)N)OC1=O)CC(O)C2O` (configuration not stated), the IC50 was > 50 µM (inactive). On to `COc1cccc(C(=O)NCc2[nH]nc3ccccc23)c1`, for which the IC50 was > 50 µM (inactive). Regarding `COc1ccc2nc3c(cc2c1)c(=O)n(C)c1c3c(=O)n(-c2ccccc2)c(=O)n1-c1ccccc1`, the IC50 was > 50 µM (inactive). In the case of `O=C(NCc1cccnc1)C1CCN(c2cnc(N3CCCCCC3)nc2)CC1`, the IC50 is > 50 µM (inactive). In the case of `CCN(CC)C(=O)CN1CCCC(c2ncncc2-c2cc(C)no2)C1` (configuration not stated), the IC50 was > 50 µM (inactive). As for `CCCCc1nc2sc3c(NCCN4CCOCC4)ncnc3c2c2c1CCC2`, the IC50 was > 50 µM (inactive). Regarding `CCCc1nc2sc3c(NCCN4CCOCC4)ncnc3c2c2c1CCC2`, the IC50 was > 50 µM (inactive). The result for `O=C(Cn1c(=O)n(CCC(=O)N2CC=C(c3ccccc3)CC2)c(=O)c2ccccc21)NCc1ccco1` reads > 50 µM (inactive); that for `CCc1ccc(C(C)NC(=O)C2CCN(c3ccc4nncn4n3)CC2)cc1` (configuration not stated), > 50 µM (inactive); that for `Cc1noc(C)c1S(=O)(=O)Nc1ccc(C(=O)Nc2ccc3c(c2)OCCO3)cc1`, > 50 µM (inactive). The same measure for `O=c1c(-c2nc(C3CC3)no2)cccn1Cc1c(F)cccc1Cl`: > 50 µM (inactive); for `COC(=O)c1sc2ccccc2c1NC(=O)c1ccc(Br)s1`: 21.5 µM.

As for `CC1CCN(C(=O)c2cn(-c3cc(N4CCC(C)CC4)ncn3)cn2)CC1`, the IC50 was > 50 µM (inactive). The same measure for `CCN(Cc1ccccc1)S(=O)(=O)c1ccc(C(=O)Nc2ccc3c(c2)OCCO3)cc1`: > 50 µM (inactive); for `COc1ccc(CCNC(=O)c2cn(-c3ccc(F)cc3)nn2)cc1OC`: 6.79 µM; for `COc1c2n(c3ccccc13)[C@@]1(O)C(=O)N(C)C(=O)[C@@]1(O)c1c-2n(C)c2ccc(Cl)cc12`: > 50 µM (inactive). Consider `Cc1ccccc1-c1nnc(-c2ccc(C(=O)NCc3ccccc3F)cc2)o1`, for which the IC50 was 3.32 µM. Regarding `CC1CCc2c(sc3ncnc(OCc4cccc([N+](=O)[O-])c4)c23)C1` (configuration not stated), the IC50 was > 50 µM (inactive). Consider `O=C(NC1CCCC1)C1CC(=O)N(c2cccc(-c3noc(-c4cccs4)n3)c2)C1` (configuration not stated), for which the IC50 was > 50 µM (inactive). For the molecule `CCN1C(=O)COc2ccc(NC(=O)c3ccc(OCc4nonc4C)cc3)cc21`, the IC50 is 29.6 µM. Regarding `CCOC(=O)c1ccc(NC(=O)c2cnc(N3CCOCC3)nc2)cc1`, the IC50 is > 50 µM (inactive). The result for `Cc1nc(Nc2c3ccccc3nc3ccccc23)sc1C` reads > 50 µM (inactive); that for `COc1cc2c(=O)n(CCC(=O)NCc3ccco3)c(=O)n(CC(=O)Nc3c(C)cccc3C)c2cc1OC`, > 50 µM (inactive). Regarding `CC(=O)c1cccc(NC(=O)c2ccc(CN(c3ccc(C)c(C)c3)S(C)(=O)=O)cc2)c1`, the IC50 is > 50 µM (inactive). The same measure for `Cc1c(OCC(=O)Nc2nc3ccccc3[nH]2)ccc2c3c(c(=O)oc12)CCC3`: 0.148 µM; for `Cc1cc(C(=O)N2CCOC3(CC=CCN(CCc4ccccc4)C3=O)C2)n2nccc2n1` (configuration not stated): > 50 µM (inactive).

In the case of `COc1cc(OC)cc(-c2nc(-c3cn(-c4cccc(F)c4)nn3)no2)c1`, the IC50 is 0.143 µM. With `O=C(c1cscn1)N1CCC2(CC1)CC1(CO2)Nc2ccccc2-n2cccc21` (configuration not stated), the IC50 was > 50 µM (inactive). On to `COCC(C)Nc1ncc(-c2cnccn2)c(-c2ccc(C)s2)n1` (configuration not stated), for which the IC50 was > 50 µM (inactive).

For the molecule `Cc1cc(C)n(-c2cccc(C(=O)Nc3ccc4c(c3)CCN4S(C)(=O)=O)c2)n1`, the IC50 was > 50 µM (inactive). With `O=C(Nc1cc(F)ccc1F)c1ccn(COc2ccc(F)c(Cl)c2)n1`, the IC50 is 22 µM. Consider `CC1CCCCN1c1nc(F)c2c(c1F)S(=O)(=O)CCN2Cc1ccccc1` (configuration not stated), for which the IC50 is > 50 µM (inactive). In the case of `Cc1ccc(NC(=O)c2ccc(Nc3nnc(C)c4ccccc34)cc2)cc1`, the IC50 was 43.2 µM. On to `CC(CCc1ccccc1)NC(=O)Cn1c(=O)c2cccn2c2ccccc21` (configuration not stated), for which the IC50 is 4.37 µM. `Cc1c(C)n(-c2ccccc2)c2ncn(CC(=O)N(C)Cc3ccccc3)c(=O)c12`: the IC50 was > 50 µM (inactive).

Turning to `Cc1nnc(Sc2cc(C(=O)NCCN3CCCC3)c3ccccc3n2)s1`, the IC50 was > 50 µM (inactive).

As for `Cc1cccc(C(=O)OCC(=O)Nc2ccc3[nH]c(=O)[nH]c3c2)c1C`, the IC50 is 2.85 µM.

On to `O=C(CSc1nnnn1-c1ccccc1)Nc1ccccc1`, for which the IC50 is 31.9 µM. The same measure for `CSc1nc2ncc3c(=O)n(CCc4ccccc4)ccc3n2n1`: > 50 µM (inactive); for `Cc1nc2sc(C(=O)Nc3ccccc3Br)c(N)c2c(C)c1C`: 1.2 µM. For `CCOC(=O)C1CCN(C(=O)c2ccc3c(c2)NC(=O)C2CCCN32)CC1` (configuration not stated), the IC50 is > 50 µM (inactive). The same measure for `O=C(c1cnccn1)N1CCc2[nH]c3ccc(F)cc3c2C1`: > 50 µM (inactive); for `Cc1cc(C)n(-c2ccc(C(=O)NCc3ccc(F)cc3)cn2)n1`: 37.4 µM. On to `CC(C)(C)C(=O)NC(c1ccccc1)c1nnc(N2CCOCC2)o1` (configuration not stated), for which the IC50 was > 50 µM (inactive). Take `O=C(O)COc1ccccc1/C=C1\CCc2c1nc1ccccc1c2C(=O)O`: the IC50 is > 50 µM (inactive). For `COc1cccc(CNC(=O)C2=Cc3cccc(OC)c3OC2)c1`, the IC50 is > 50 µM (inactive).

Values taken from PubChem BioAssay AID1645865 (Buhrlage Lab, Dana-Farber Cancer Institute and Novartis …, 2021).
